From patent publication US5674905A, “Bicyclooctane and bicycloheptane derivatives” (James Black Foundation Limited, priority 1992, dated 1997)

Experiments:
[1] = target: T1, gastrin receptors (Rattus norvegicus, UniProt P30553); test: gastrin antagonist activity in an immature rat stomach assay (pentagastrin-stimulated acid secretion); conditions: isolated immature rat stomach, cumulative pentagastrin dose-response curves; for Kb: read-out: Gastrin pKB (converted); for Gastrin pKB: 60 min
T1 construct: from tissue; host or cells: isolated perfused whole stomach of immature rats (33-50 g, ca. 21 days old)
T1 sequence (P30553 1-452): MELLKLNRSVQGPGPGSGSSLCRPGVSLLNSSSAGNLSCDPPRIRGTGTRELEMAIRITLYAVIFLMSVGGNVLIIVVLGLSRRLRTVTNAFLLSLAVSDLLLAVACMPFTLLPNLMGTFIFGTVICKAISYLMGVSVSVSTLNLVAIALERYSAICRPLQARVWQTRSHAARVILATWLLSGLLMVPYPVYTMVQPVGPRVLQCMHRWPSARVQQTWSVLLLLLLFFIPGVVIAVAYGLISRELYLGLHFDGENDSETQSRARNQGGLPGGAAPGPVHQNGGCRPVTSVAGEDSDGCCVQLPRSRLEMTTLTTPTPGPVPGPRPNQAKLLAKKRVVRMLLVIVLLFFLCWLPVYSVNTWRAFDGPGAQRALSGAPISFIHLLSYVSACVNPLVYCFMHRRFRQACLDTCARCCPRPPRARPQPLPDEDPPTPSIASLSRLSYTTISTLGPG
Description: The compounds of the examples were also tested for gastrin antagonist activity in an immature rat stomach assay. The procedure was as follows:
The oesophagus of immature rats (33-50 g, ca. 21 days old) was ligated at the level of the cardiac sphincter and the duodenal sphincter was cannulated. The stomach was excised and flushed with ca. 1 ml of unbuffered physiological saline solution. The fundus was punctured and cannulated. A further 4-5 ml of unbuffered solution was flushed through the stomach to ensure the preparation was not leaking. The stomach was lowered into a jacketed organ bath containing 40 ml of buffered solution containing 3×10^-8 M 5-methyl-furmethide, maintained at 37° and gassed vigorously with 95% O2 /5% CO2. The stomach was continuously perfused at a rate of 1 ml min^-1 with unbuffered solution gassed with 100% O2 with the perfusate passing over an internally referenced pH-electrode fixed 12 cm above the stomach.
After 120 min of stabilisation the drugs were added directly to the serosal solution in the organ bath and after a further 60 min cumulative pentagastrin dose-response curves were started. Changes in acid secretion were monitored and the curves analysed according to Black et. al., Br. J. Pharmacol., 1985, 86, 581.

[2] = target: T2, CCKB receptor (Mus musculus, UniProt P56481); test: radioligand binding assay at the CCKB receptor in mouse cortical membranes ([125I]-CCK8S); conditions: 150 min at 21±3°; for Ki: read-out: CCKB pKi (converted)
T2 construct: The cortex was dissected, weighed and homogenised in 40 ml ice-cold buffer; from tissue; host or cells: cerebral cortex membranes of male CD1 mice (Charles River)
T2 sequence (P56481 1-453): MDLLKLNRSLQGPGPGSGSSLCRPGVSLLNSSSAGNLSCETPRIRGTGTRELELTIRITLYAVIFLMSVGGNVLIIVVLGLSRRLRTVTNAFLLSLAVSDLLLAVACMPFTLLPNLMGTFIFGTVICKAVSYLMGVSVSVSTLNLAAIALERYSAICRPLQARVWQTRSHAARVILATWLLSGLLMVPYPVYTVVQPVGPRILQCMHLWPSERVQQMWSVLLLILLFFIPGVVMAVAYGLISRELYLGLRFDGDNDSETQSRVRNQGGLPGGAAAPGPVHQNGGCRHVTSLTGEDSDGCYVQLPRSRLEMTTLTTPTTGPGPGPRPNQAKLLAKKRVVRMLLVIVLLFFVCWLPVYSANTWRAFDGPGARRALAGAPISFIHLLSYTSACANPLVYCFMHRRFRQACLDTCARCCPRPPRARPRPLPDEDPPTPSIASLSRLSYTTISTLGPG
Description: The compounds of the examples were tested for binding at the CCKB receptor in mouse cortical membranes by means of a radioligand binding assay. The procedure was as follows:
The whole brains from male mice (CD1 22-25 g; Charles River) were removed and placed in ice-cold buffer (pH7.2 @ 21±3 °) of the following composition (mM); 10 HEPES, 130 NaCl, 4.7 KCl, 5 MgCl2, 1 EDTA and containing 0.25 g.1^-1 bacitracin. The cortex was dissected, weighed and homogenised in 40 ml ice-cold buffer using a Teflon-in-glass homogeniser. The homogenate was centrifuged at 39,800 g for 20 min at @ 4°, the supernatant discarded and the pellet resuspended by homogenisation in fresh buffer. The homogenate was recentrifuged (39,800 g; 20 min @4°) and the final pellet was resuspended in HEPES buffer to give a tissue concentration of 2 mg.ml^-1 (original wet weight).
The membranes ([…]) were incubated for 150 min at 21±3° in a final volume of 0.5 ml with HEPES buffer containing [^125 I]-CCK8S (0.05 ml; 200 pM NEN 2200 Ci.mmol^-1) and competing compound. Total and non-specific binding of [^125 I]-CCK8S were defined using 0.05 ml of buffer and 0.05 ml of […] L-365,260, respectively. The assay was terminated by rapid filtration through pre-soaked Whatman GF/B filters using a Brandell Cell harvester. The filters were washed (3×3 ml) with ice-cold 50 mM Tris-HC1 (pH7.4 @ 4° C.) and bound radioactivity determined by counting (1 min.) in a gamma-counter.

Kb [1] [nM]	Ki [2] [nM]	Gastrin pKB [1]	CCKB pKi [2]	SMILES
1000	7940	–	–	COC(=O)[C@H](C)NC(=O)C1C2CCC(CC2)C1C(=O)NCC12CC3CC(CC(C3)C1)C2 (mixture of isomers) [Example 25, cis-(±)-2-(1-S-Methoxycarbonyl-ethylaminocarbonyl)-3-(1-adamantylmethylaminocarbonyl)-bicyclo[2.2.2]octane]
–	–	6.9	7.6	COC(=O)C12CC(c3ccccc31)C(C(=O)NCC13CC4CC(CC(C4)C1)C3)C2C(=O)N[C@@H](Cc1ccccc1)C(=O)Nc1cc(C(=O)O)cc(C(=O)O)c1 (mixture of isomers) [Example 55, (±)-1-methoxycarbonyl-endo-cis-6-(1S-(3,5-dicarboxyphenylaminocarbonyl)-2-phenylethylamino-carbonyl)-7-(1-adamantylmethylaminocarbonyl)-2,3-benzo-bicyclo[2.2.1]heptane]
–	–	5.6	5.1	COC(=O)C12CC(c3ccccc31)C(C(=O)NCC13CC4CC(CC(C4)C1)C3)C2C(=O)N1CCC[C@@H]1C(=O)O (mixture of isomers) [Example 56, (±)-1-methoxycarbonyl-endo-cis-6-(2R-carboxypyrrolidinocarbonyl)-7-(1-adamantylmethylaminocarbonyl)-2,3-benzobicyclo[2.2.1]heptane]
2510	2000	–	–	O=C(O)C1C2C=CC(C2=C(c2ccccc2)c2ccccc2)C1C(=O)NCC12CC3CC(CC(C3)C1)C2 (racemic) [Example 39, (±)-endo and exo-cis-7-(1-adamantylmethylaminocarbonyl)-2-diphenylmethylene bicyclo-[2.2.1]hept-4-ene-6-carboxylic acid]
3160	1580	–	–	O=C(NCC12CC3CC(CC(C3)C1)C2)C1C2C=CC(c3ccccc32)C1C(=O)N[C@H](Cc1c[nH]c2ccccc12)C(=O)O (single isomer, unassigned) [Example 15, endo-cis-7-(2-R-(3-indolyl)-1-carboxy-ethylaminocarbonyl)-8-(1-adamantylmethylaminocarbonyl)-5,6-benzobicyclo[2.2.2]oct-2-ene]
501	316	–	–	O=C(NCC12CC3CC(CC(C3)C1)C2)C1C2C=CC(c3ccccc32)C1C(=O)N[C@H](Cc1c[nH]c2ccccc12)C(=O)O (single isomer, unassigned) [Example 16, endo-cis-7-(2-R-(3-indolyl)-1-carboxy-ethylaminocarbonyl)-8-(1-adamantylmethylaminocarbonyl)-5 , 6-benzobicyclo[2.2.2]oct-2-ene]
316	251	–	–	COC(=O)[C@H](C)NC(=O)C1C2C=CC(c3ccccc32)C1C(=O)NCC12CC3CC(CC(C3)C1)C2 (stereo partly drawn) [Example 7, exo-cis-7-(1-S-methoxycarbonyl-ethylaminocarbonyl)-8-(1-adamantylmethylaminocarbonyl)-5,6-benzobicyclo[2.2.2]oct-2-ene]
501	631	–	–	COC(=O)[C@H](C)NC(=O)C1C2C=CC(c3ccccc32)C1C(=O)NCC12CC3CC(CC(C3)C1)C2 (stereo partly drawn) [Example 8, endo-cis-7-(1--S--methoxycarbonylethylaminocarbonyl)-8-(1-adamantylmethylaminocarbonyl)-5,6-benzobicyclo[2.2.2]oct-2-ene]
794	2510	–	–	O=C(NCC12CC3CC(CC(C3)C1)C2)C1C2C=CC(c3ccccc32)C1C(=O)N1CCC[C@@H]1C(=O)O (stereo partly drawn) [Example 9, exo-cis-7-(2-R-carboxy-pyrrolidinocarbonyl)-8-(1-adamantylmethylaminocarbonyl)-5,6-benzobicyclo-[2.2.2]oct-2-ene]
1580	2000	–	–	O=C(NCC12CC3CC(CC(C3)C1)C2)C1C2C=CC(c3ccccc32)C1C(=O)N1CCC[C@@H]1C(=O)O (stereo partly drawn) [Example 10, endo-cis-7-(2-R-carboxy-pyrrolidinocarbonyl)-8-(1-adamantylmethylaminocarbonyl)-5,6-benzobicyclo[2.2.2]oct-2-ene]
1580	398	–	–	COC(=O)[C@H](C)NC(=O)C1C2C(C)=C(C)C(c3ccccc32)C1C(=O)NCC12CC3CC(CC(C3)C1)C2 (stereo partly drawn) [Example 19, exo-cis-7-(1-S-Methoxycarbonyl-ethylaminocarbonyl)-8-(1-adamantylmethylaminocarbonyl)-2,3-dimethyl-5,6-benzobicyclo[2.2.2]oct-2-ene]
501	–	–	–	COC(=O)[C@@H]1CCCN1C(=O)C1C2C=CC(c3ccccc32)C1C(=O)NCC12CC3CC(CC(C3)C1)C2 (stereo partly drawn) [Example 31, exo-cis-7-(2-S-methoxycarbonyl-pyrrolidinocarbonyl)-8-(1-adamantylmethylaminocarbonyl)-5,6-benzo-bicyclo[2.2.2]oct-2-ene]

SMILES	Kb [1] [nM]	Ki [2] [nM]	Gastrin pKB [1]	CCKB pKi [2]
O=C1CC2c3ccccc3C1C(C(=O)O)C2C(=O)NCC12CC3CC(CC(C3)C1)C2 (mixture of isomers) [Example 13, endo-(±)-cis-8-(1-adamantylmethylaminocarbonyl)-2-oxo-5,6-benzobicyclo[2.2.2]octane-7-carboxylic acid]	3160	2510	–	–
COC(=O)C12CC(c3ccccc31)C(C(=O)NCC13CC4CC(CC(C4)C1)C3)C2C(=O)O (mixture of isomers) [Example 54, 1-methoxycarbonyl-endo-cis-(±)-7-(1-adamantylmethylaminocarbonyl)-2,3-benzobicyclo-[2.2.1] hept-6-carboxylic acid]	–	–	6.1	5.3
O=C(O)[C@@H]1[C@H](C(=O)NCC23CC4CC(CC(C4)C2)C3)[C@H]2C=C[C@@H]1c1ccccc12 (relative stereo) [Example 2, endo-(±)-cis-8-(1-adamantylmethylaminocarbonyl)-5,6-benzobicyclo[2.2.2]oct-2-ene-7-carboxylic acid]	1260	2510	–	–
CC1=C(C)[C@H]2c3ccccc3[C@@H]1[C@@H](C(=O)O)[C@H]2C(=O)NCC12CC3CC(CC(C3)C1)C2 (relative stereo) [Example 11, exo-(±)-cis-8-(1-adamantylmethylaminocarbonyl)-2,3-dimethyl-5,6-benzobicyclo[2.2.2]oct-2-ene-7-carboxylic acid]	6310	1580	–	–
CC1=C(C)[C@H]2c3ccccc3[C@@H]1[C@H](C(=O)O)[C@@H]2C(=O)NCC12CC3CC(CC(C3)C1)C2 (relative stereo) [Example 12, endo-(±)-cis-8-(1-adamantylmethylaminocarbonyl)-2,3-dimethyl-5,6-benzobicyclo[2.2.2]oct-2-ene-7-carboxylic acid]	5010	794	–	–
